Measured values reported in patent US20070049564A1 (Wyeth, priority 2005, published 2007).
≈ marks a conversion by molar mass, not a printed value. Read-outs that look alike come from different tables or passages of the source.

How the values were obtained:
E. faecium GC 2243 = experiment: MIC, broth microdilution; conditions: Enterococcus faecium, GC2243, E. faecium GC 2243
Method: (§1) Antimicrobial susceptibility testing. The in vitro activities of the antibiotics are determined by the broth microdilution method as recommended by the National Committee for Clinical Laboratory Standards (NCCLS) (1). Mueller-Hinton II broth (MHBII)(BBL Cockeysville, Md.) is the medium employed in the testing procedures. Microtiter plates containing serial dilutions of each antimicrobial agent are inoculated with each organism to yield the appropriate density (10^5 CFU/ml) in a 100 μl final volume. The plates are incubated for 18-22 hours at 35° C. in ambient air.
(§2) Representative compounds were first incubated in mouse serum for an hour prior to the in vitro testing against a panel of selected gram-positive and gram-negative bacteria strains. All compounds were also pre-incubated in water for an hour prior to testing as control.

S. typhimurium GC 2172 = experiment: MIC, broth microdilution; conditions: Salmonella enterica, TYPHIMURIUM, S. typhimurium GC 2172
E. faecium GC 4556 = experiment: MIC, broth microdilution; conditions: Enterococcus faecium, GC4556, E. faecium GC 4556
S. aureus GC 6466 = experiment: MIC, broth microdilution; conditions: Staphylococcus aureus, GC6466, S. aureus GC 6466
S. aureus GC 4536 = experiment: MIC, broth microdilution; conditions: Staphylococcus aureus, GC4536, S. aureus GC 4536
E. coli GC 4560 = experiment: MIC, broth microdilution; conditions: Escherichia coli, GC4560, E. coli GC 4560
S. aureus GC 2216 = experiment: MIC, broth microdilution; conditions: Staphylococcus aureus, GC2216, S. aureus GC 2216
c. albicans GC 3066 = experiment: MIC, broth microdilution
Staph. = experiment: Range of MIC for Staph. strains, including MRSA; conditions: Staphylococcus aureus, MRSA
S. aureus GC 1079 = experiment: MIC, broth microdilution; conditions: Staphylococcus aureus, GC1079, S. aureus GC 1079
E. coli GC 1073 = experiment: MIC, broth microdilution; conditions: Escherichia coli, GC1073, E. coli GC 1073
E. coli = experiment: Range of MIC for E. coli strains; conditions: Escherichia coli
E. coli GC 2270 = experiment: MIC, broth microdilution; conditions: Escherichia coli, GC2270, E. coli GC 2270
S. aureus GC 6469 = experiment: MIC, broth microdilution; conditions: Staphylococcus aureus, GC6469, S. aureus GC 6469
Method: as §1, §2

E. faecalis GC 2242 = experiment: MIC, broth microdilution; conditions: Enterococcus faecalis, GC2242, E. faecalis GC 2242
S. aureus GC 6467 = experiment: MIC, broth microdilution; conditions: Staphylococcus aureus, GC6467, S. aureus GC 6467
E. coli GC 2231 = experiment: MIC, broth microdilution; conditions: Escherichia coli, GC2231, E. coli GC 2231
E. coli GC 6465 = experiment: MIC, broth microdilution; conditions: Escherichia coli, GC6465, E. coli GC 6465
E. coli GC 2233 = experiment: MIC, broth microdilution; conditions: Escherichia coli, GC2233, E. coli GC 2233
E. coli GC 2235 = experiment: MIC, broth microdilution; conditions: Escherichia coli, GC2235, E. coli GC 2235
Method: as §1
Representative compounds were first incubated in mouse serum for an hour prior to the in vitro testing against a panel of selected gram-positive and gram-negative bacteria strains. All compounds were also pre-incubated in water for an hour prior to testing as control. Representative compounds of Formula I were incubated in human serum prior to MIC determination.

[1] = c. albicans GC 3066, Water pre-incubation
[2] = read-out: Range of MIC, Staph (Mouse Serum)
[3] = read-out: Range of MIC, Staph (Water)
[4] = read-out: Range of MIC, Staph. (mouse serum)
[5] = read-out: Range of MIC, Staph. (water)
[6] = 20 h, read-out: Range of MIC, E. coli (Mouse Serum)
[7] = read-out: Range of MIC, E. coli (Water)
[8] = read-out: Range of MIC, E. coli (mouse serum)
[9] = read-out: Range of MIC, E. coli (water)

CCCN(CC(=O)Nc1cc(N(C)C)c2c(c1O)C(=O)C1=C(O)[C@]3(O)C(=O)C(C(N)=O)=C(O)[C@@H](N(C)C)[C@@H]3C[C@@H]1C2)C(=O)OCOC(=O)c1ccc(OC)cc1 [Example 6, ({[(2-{[(5aR,6aS,7S,10aS)-9-(aminocarbonyl)-4,7-bis(dimethylamino)-1,8,10a,11-tetrahydroxy-10,12-dioxo-5,5a,6,6a,7,10,10a,12-octahydrotetracen-2-yl]amino}-2-oxoethyl)(propyl)amino]carbonyl}oxy)methyl 4-methoxybenzoate]
MIC (E. faecium GC 2243; Mouse Serum pre-incubation): 0.5 µg/mL (≈ 0.641 µM) | MIC (E. faecium GC 2243; Water pre-incubation): 2 µg/mL (≈ 2.56 µM) | MIC (S. typhimurium GC 2172; Mouse Serum pre-incubation): 8 µg/mL (≈ 10.3 µM) | MIC (S. typhimurium GC 2172; Water pre-incubation): > 64 µg/mL | MIC (E. faecium GC 4556; Mouse Serum pre-incubation): 1 µg/mL (≈ 1.28 µM) | MIC (E. faecium GC 4556; Water pre-incubation): 2 µg/mL (≈ 2.56 µM) | MIC (S. aureus GC 6466; Mouse Serum pre-incubation): 0.25 µg/mL (≈ 0.321 µM) | MIC (S. aureus GC 6466; Water pre-incubation): 1 µg/mL (≈ 1.28 µM) | MIC (S. aureus GC 4536; Mouse Serum pre-incubation): 0.5 µg/mL (≈ 0.641 µM) | MIC (S. aureus GC 4536; Water pre-incubation): 2 µg/mL (≈ 2.56 µM) | MIC (E. coli GC 4560; Mouse Serum pre-incubation): 0.25 µg/mL (≈ 0.321 µM) | MIC (E. coli GC 4560; Water pre-incubation): 2 µg/mL (≈ 2.56 µM) | MIC (S. aureus GC 2216; Mouse Serum pre-incubation): 0.5 µg/mL (≈ 0.641 µM) | MIC (S. aureus GC 2216; Water pre-incubation): 2 µg/mL (≈ 2.56 µM) | MIC (c. albicans GC 3066; Candida albicans, GC3066): > 64 µg/mL | MIC (c. albicans GC 3066; [1]): >64 UG/ML | MIC (Staph.; [2]): 0.5 to 2 µg/mL (≈ 0.641 to 2.56 µM) | MIC (Staph.; [3]): 1 to 4 µg/mL (≈ 1.28 to 5.13 µM) | MIC (Staph.; [4]): 0.5 to 2 µg/mL (≈ 0.641 to 2.56 µM) | MIC (Staph.; [5]): 1 to 4 µg/mL (≈ 1.28 to 5.13 µM) | MIC (S. aureus GC 1079; Mouse Serum pre-incubation): 2 µg/mL (≈ 2.56 µM) | MIC (S. aureus GC 1079; Water pre-incubation): 4 µg/mL (≈ 5.13 µM) | MIC (E. coli GC 1073; Mouse Serum pre-incubation): 2 µg/mL (≈ 2.56 µM) | MIC (E. coli GC 1073; Water pre-incubation): 16 µg/mL (≈ 20.5 µM) | MIC (E. coli; [6]): 1 to 2 µg/mL (≈ 1.28 to 2.56 µM) | MIC (E. coli; [7]): 8 to 64 µg/mL (≈ 10.3 to 82.1 µM) | MIC (E. coli; [8]): 1 to 2 µg/mL (≈ 1.28 to 2.56 µM) | MIC (E. coli; [9]): 8 to 64 µg/mL (≈ 10.3 to 82.1 µM) | MIC (E. coli GC 2270; Mouse Serum pre-incubation): 1 µg/mL (≈ 1.28 µM) | MIC (E. coli GC 2270; Water pre-incubation): 8 µg/mL (≈ 10.3 µM) | MIC (S. aureus GC 6469; Mouse Serum pre-incubation): 2 µg/mL (≈ 2.56 µM) | MIC (S. aureus GC 6469; Water pre-incubation): 4 µg/mL (≈ 5.13 µM) | MIC (E. faecalis GC 2242; Mouse Serum pre-incubation): 1 µg/mL (≈ 1.28 µM) | MIC (E. faecalis GC 2242; Water pre-incubation): 2 µg/mL (≈ 2.56 µM) | MIC (S. aureus GC 6467; Mouse Serum pre-incubation): 2 µg/mL (≈ 2.56 µM) | MIC (S. aureus GC 6467; Water pre-incubation): 4 µg/mL (≈ 5.13 µM) | MIC (E. coli GC 2231; Mouse Serum pre-incubation): 2 µg/mL (≈ 2.56 µM) | MIC (E. coli GC 2231; Water pre-incubation): 64 µg/mL (≈ 82.1 µM) | MIC (E. coli GC 6465; Mouse Serum pre-incubation): 4 µg/mL (≈ 5.13 µM) | MIC (E. coli GC 6465; Water pre-incubation): > 64 µg/mL | MIC (E. coli GC 2233; Mouse Serum pre-incubation): 2 µg/mL (≈ 2.56 µM) | MIC (E. coli GC 2233; Water pre-incubation): 16 µg/mL (≈ 20.5 µM) | MIC (E. coli GC 2235; Mouse Serum pre-incubation): 1 µg/mL (≈ 1.28 µM) | MIC (E. coli GC 2235; Water pre-incubation): 8 µg/mL (≈ 10.3 µM)

CCCN(CC(=O)Nc1cc(N(C)C)c2c(c1O)C(=O)C1=C(O)[C@]3(O)C(=O)C(C(N)=O)=C(O)[C@@H](N(C)C)[C@@H]3C[C@@H]1C2)C(=O)OCOC(=O)C1CCC1 [Example 7, ({[(2-{[(5aR,6aS,7S,10aS)-9-(aminocarbonyl)-4,7-bis(dimethylamino)-1,8,10a,11-tetrahydroxy-10,12-dioxo-5,5a,6,6a,7,10,10a,12-octahydrotetracen-2-yl]amino}-2-oxoethyl)(propyl)amino]carbonyl}oxy)methyl cyclobutanecarboxylate]
MIC (E. faecium GC 2243; Mouse Serum pre-incubation): 0.25 µg/mL (≈ 0.344 µM) | MIC (E. faecium GC 2243; Water pre-incubation): 0.12 µg/mL (≈ 0.165 µM) | MIC (S. typhimurium GC 2172; Mouse Serum pre-incubation): 4 µg/mL (≈ 5.5 µM) | MIC (S. typhimurium GC 2172; Water pre-incubation): > 64 µg/mL | MIC (E. faecium GC 4556; Mouse Serum pre-incubation): 0.5 µg/mL (≈ 0.687 µM) | MIC (E. faecium GC 4556; Water pre-incubation): 1 µg/mL (≈ 1.37 µM) | MIC (S. aureus GC 6466; Mouse Serum pre-incubation): 0.5 µg/mL (≈ 0.687 µM) | MIC (S. aureus GC 6466; Water pre-incubation): 0.5 µg/mL (≈ 0.687 µM) | MIC (S. aureus GC 4536; Mouse Serum pre-incubation): 1 µg/mL (≈ 1.37 µM) | MIC (S. aureus GC 4536; Water pre-incubation): 1 µg/mL (≈ 1.37 µM) | MIC (E. coli GC 4560; Mouse Serum pre-incubation): 0.25 µg/mL (≈ 0.344 µM) | MIC (E. coli GC 4560; Water pre-incubation): 0.5 µg/mL (≈ 0.687 µM) | MIC (S. aureus GC 2216; Mouse Serum pre-incubation): 0.5 µg/mL (≈ 0.687 µM) | MIC (S. aureus GC 2216; Water pre-incubation): 0.5 µg/mL (≈ 0.687 µM) | MIC (c. albicans GC 3066; Candida albicans, GC3066): > 64 µg/mL | MIC (c. albicans GC 3066; [1]): >64 UG/ML | MIC (Staph.; [2]): 0.5 to 4 µg/mL (≈ 0.687 to 5.5 µM) | MIC (Staph.; [3]): 0.5 to 4 µg/mL (≈ 0.687 to 5.5 µM) | MIC (Staph.; [4]): 0.5 to 4 µg/mL (≈ 0.687 to 5.5 µM) | MIC (Staph.; [5]): 0.5 to 4 µg/mL (≈ 0.687 to 5.5 µM) | MIC (S. aureus GC 1079; Mouse Serum pre-incubation): 1 µg/mL (≈ 1.37 µM) | MIC (S. aureus GC 1079; Water pre-incubation): 4 µg/mL (≈ 5.5 µM) | MIC (E. coli GC 1073; Mouse Serum pre-incubation): 0.5 µg/mL (≈ 0.687 µM) | MIC (E. coli GC 1073; Water pre-incubation): 8 µg/mL (≈ 11 µM) | MIC (E. coli; [6]): 0.25 to 2 µg/mL (≈ 0.344 to 2.75 µM) | MIC (E. coli; [7]): 2 to 16 µg/mL (≈ 2.75 to 22 µM) | MIC (E. coli; [8]): 0.25 to 2 µg/mL (≈ 0.344 to 2.75 µM) | MIC (E. coli; [9]): 2 to 16 µg/mL (≈ 2.75 to 22 µM) | MIC (E. coli GC 2270; Mouse Serum pre-incubation): 0.5 µg/mL (≈ 0.687 µM) | MIC (E. coli GC 2270; Water pre-incubation): 4 µg/mL (≈ 5.5 µM) | MIC (S. aureus GC 6469; Mouse Serum pre-incubation): 2 µg/mL (≈ 2.75 µM) | MIC (S. aureus GC 6469; Water pre-incubation): 4 µg/mL (≈ 5.5 µM) | MIC (E. faecalis GC 2242; Mouse Serum pre-incubation): 1 µg/mL (≈ 1.37 µM) | MIC (E. faecalis GC 2242; Water pre-incubation): 1 µg/mL (≈ 1.37 µM) | MIC (S. aureus GC 6467; Mouse Serum pre-incubation): 4 µg/mL (≈ 5.5 µM) | MIC (S. aureus GC 6467; Water pre-incubation): 4 µg/mL (≈ 5.5 µM) | MIC (E. coli GC 2231; Mouse Serum pre-incubation): 2 µg/mL (≈ 2.75 µM) | MIC (E. coli GC 2231; Water pre-incubation): 16 µg/mL (≈ 22 µM) | MIC (E. coli GC 6465; Mouse Serum pre-incubation): 16 µg/mL (≈ 22 µM) | MIC (E. coli GC 6465; Water pre-incubation): > 64 µg/mL | MIC (E. coli GC 2233; Mouse Serum pre-incubation): 0.5 µg/mL (≈ 0.687 µM) | MIC (E. coli GC 2233; Water pre-incubation): 4 µg/mL (≈ 5.5 µM) | MIC (E. coli GC 2235; Mouse Serum pre-incubation): 0.5 µg/mL (≈ 0.687 µM) | MIC (E. coli GC 2235; Water pre-incubation): 4 µg/mL (≈ 5.5 µM)
